Marks after values point to notes of the source that are not given here.
Columns and labels:
hGcg-R = hGcg-R (Homo sapiens, UniProt P47871); experiment: Functional activation of hGcg-R in primary human hepatocytes (cAMP); assay type: cell-based; parameters: stimulating cAMP production at the endogenous Gcg receptors; endogenous in cells; host or cells: cryopreserved primary human hepatocytes; conditions: for EC50 / cAMP production: primary human hepatocytes; for EC50: cAMP, 1 hour; for cAMP production: data not shown
DIO mice (C57BL/6) = experiment: Oral Glucose Tolerance Test (OGTT) in DIO mice; assay type: in vivo, mouse; conditions: for Glucose AUC (% of vehicle): male DIO mice, OGTT (2 g/kg) 16 hours post injection
Experimental: Diet-induced obese (DIO) mouse model is a model of insulin resistance. Five to six months old male DIO mice (C57BL/6) from Taconic Biosciences are used in this study. Animals are individually housed in a temperature-controlled (24° C.) facility with a 12 hour light/dark cycle (lights on 06:00), and free access to food and water. The acclimation period to the facility is two weeks. The day before the study, animals are randomized into groups based on their body weight. That same afternoon, animals are fasted in clean cages and dosed with vehicle (40 mM Tris-HCl, pH 8.0) or test articles by subcutaneous injection. The following morning, 16 hours post the peptide injection, fasting body weights are obtained to calculate glucose doses. Blood samples are taken to measure time zero glucose. Animals are then given an oral gavage of glucose (2 g/kg). Two glucose readings via glucometers were obtained at 15, 30, 60 and 120 minutes post oral glucose. The average of two glucose readings is reported at each time point and an area under the curve is calculated. Statistics were analyzed using ANOVA with Dunnett's comparison by JMP 6; significance is denoted at p≤0.05 vs. vehicle.

[1] = test system: STZ-treated DIO mice (C57BL/6); experiment: OGTT in Streptozotocin (STZ)-treated DIO mice; assay type: in vivo, mouse; conditions: for Glucose AUC (% of vehicle): male STZ mice, OGTT (2 g/kg) 16 hours post injection
Experimental: STZ-treated mouse model is a model of early diabetes. Five to six months old male DIO mice (C57BL/6) from Taconic Biosciences are used in this study. Animals are individually housed in a temperature-controlled (24° C.) facility with a 12 hour light/dark cycle (lights on 6:00), and free access to food and water. After two weeks acclimation to the facility, mice are injected intraperitoneally with 50 mg/kg of STZ on Tuesday and Friday. Two weeks post the injection, animals with glucose levels between 180-300 mg/dL at 09:00 are selected for the OGTT study. The day before the study, animals are randomized into groups based on body weight and their glucose levels. Animals are treated with vehicle or testing articles by subcutaneous injection just prior to food removal overnight (16:00). The following morning at 08:00, 16 hours post compound injection, blood samples are taken to measure time zero glucose. Animals are given an oral dose of glucose of 2 g/kg. Glucose is measured 15, 30, 60, and 120 minutes post the oral glucose challenge. Statistics are analyzed using ANOVA with Dunnett's comparison by JMP 6. Significance is denoted at p≤0.05 vs. vehicle.

hGcg-R, sequence (P47871 26-477): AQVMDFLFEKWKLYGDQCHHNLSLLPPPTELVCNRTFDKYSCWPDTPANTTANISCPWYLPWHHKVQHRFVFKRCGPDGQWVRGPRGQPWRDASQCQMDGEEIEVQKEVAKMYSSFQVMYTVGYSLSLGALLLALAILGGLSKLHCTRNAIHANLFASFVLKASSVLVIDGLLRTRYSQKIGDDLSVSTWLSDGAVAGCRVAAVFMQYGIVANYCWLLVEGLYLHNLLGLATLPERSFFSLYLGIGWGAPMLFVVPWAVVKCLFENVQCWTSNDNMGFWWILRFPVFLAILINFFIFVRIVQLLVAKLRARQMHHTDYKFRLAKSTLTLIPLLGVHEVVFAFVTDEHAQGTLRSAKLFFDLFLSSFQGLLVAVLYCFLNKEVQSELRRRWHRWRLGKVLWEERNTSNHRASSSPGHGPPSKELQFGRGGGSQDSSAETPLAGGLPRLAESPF

Row | Compound | Emax (hGcg-R; percent of maximal response with a Gcg analog conjugated to a saturated C18 fatty acid (diacid)) [%] | EC50 (hGcg-R) [nM] | cAMP production (hGcg-R) | Glucose AUC (% of vehicle) (DIO mice (C57BL/6); 1 nmol/kg sc) | Glucose AUC (% of vehicle) (DIO mice (C57BL/6); 3 nmol/kg sc) | Glucose AUC (% of vehicle) (DIO mice (C57BL/6); 10 nmol/kg sc) | glucose during the tolerance test (DIO mice (C57BL/6); male DIO mice, 1, 3 and 10 nmol/kg) | Glucose AUC (% of vehicle) ([1]; 1 nmol/kg sc) | Glucose AUC (% of vehicle) ([1]; 3 nmol/kg sc) | Glucose AUC (% of vehicle) ([1]; 10 nmol/kg sc) | glucose excursion during the tolerance test ([1]; male STZ mice, 1, 3 and 10 nmol/kg)
1 | CC(C)C[C@H](NC(=O)[C@H](CC(C)C)NC(=O)[C@H](Cc1c[nH]c2ccccc12)NC(=O)[C@H](CCC(=O)O)NC(=O)[C@@H](NC(=O)[C@H](Cc1ccccc1)NC(=O)[C@H](CCC(=O)O)NC(=O)[C@H](CCCCNC(=O)COCCOCCNC(=O)COCCOCCNC(=O)CC[C@H](NC(=O)CCCCCCCCCCCCCCCCC(=O)O)C(=O)O)NC(=O)[C@H](C)NC(=O)[C@H](CCCCN)NC(=O)[C@H](CCCCN)NC(=O)[C@H](CCC(=O)O)NC(=O)[C@H](CC(=O)O)NC(=O)[C@H](CC(C)C)NC(=O)[C@H](Cc1ccc(O)cc1)NC(=O)[C@H](CCCCN)NC(=O)[C@H](CO)NC(=O)[C@H](Cc1ccc(O)cc1)NC(=O)[C@H](CC(=O)O)NC(=O)[C@H](CO)NC(=O)[C@@H](NC(=O)[C@H](Cc1ccccc1)NC(=O)[C@@H](NC(=O)CNC(=O)[C@H](CCC(N)=O)NC(=O)C(C)(C)NC(=O)[C@@H](N)Cc1c[nH]cn1)[C@@H](C)O)[C@@H](C)O)C(C)C)C(=O)N[C@@H](CCC(=O)O)C(=O)NCC(=O)NCC(=O)N1CCC[C@H]1C(=O)N[C@@H](CO)C(=O)N[C@@H](CO)C(=O)NCC(N)=O [Compound 1] | 100 | 99.9 | increased cAMP production in a dose-dependent manner | – | – | – | – | – | – | – | –
2 | CC(C)C[C@H](NC(=O)[C@H](CC(C)C)NC(=O)[C@H](Cc1c[nH]c2ccccc12)NC(=O)[C@H](CCC(=O)O)NC(=O)[C@@H](NC(=O)[C@H](Cc1ccccc1)NC(=O)[C@H](CCC(=O)O)NC(=O)[C@H](CCCCNC(=O)COCCOCCNC(=O)COCCOCCNC(=O)CC[C@H](NC(=O)CCCCCCCCCCCCCCCCCCC(=O)O)C(=O)O)NC(=O)[C@H](C)NC(=O)[C@H](CCCCN)NC(=O)[C@H](CCCCN)NC(=O)[C@H](CCC(=O)O)NC(=O)[C@H](CC(=O)O)NC(=O)[C@H](CC(C)C)NC(=O)[C@H](Cc1ccc(O)cc1)NC(=O)[C@H](CCCCN)NC(=O)[C@H](CO)NC(=O)[C@H](Cc1ccc(O)cc1)NC(=O)[C@H](CC(=O)O)NC(=O)[C@H](CO)NC(=O)[C@@H](NC(=O)[C@H](Cc1ccccc1)NC(=O)[C@@H](NC(=O)CNC(=O)[C@H](CCC(N)=O)NC(=O)C(C)(C)NC(=O)[C@@H](N)Cc1c[nH]cn1)[C@@H](C)O)[C@@H](C)O)C(C)C)C(=O)N[C@@H](CCC(=O)O)C(=O)NCC(=O)NCC(=O)N1CCC[C@H]1C(=O)N[C@@H](CO)C(=O)N[C@@H](CO)C(=O)NCC(N)=O [Compound 2] | – | 159 | increased cAMP production in a dose-dependent manner | 76* % of vehicle | 50* % of vehicle | 39* % of vehicle | dose-dependent decrease in glucose | 70* % of vehicle | 48* % of vehicle | 35* % of vehicle | dose dependent decrease in glucose excursion
